# According to patent US10039752B2 (Cipla Limited, priority 2016, dated 2018):
# Where two headings read alike, the source gives them in different places.
# Columns and labels:
# [1] = system: PAXF 1986L; test: In vitro 2-D assay (CellTiter-Blue cell viability, 96 h); assay type: cell-based; conditions: Homo sapiens, PAXF 1986, 96 hours treatment
# Excerpt: (§1) PAXF 546L, PAXF 1986L, PAXF 1998L, PAXF 2005L and PAXF 2059L were established at Oncotest from the corresponding human patient derived xenograft. CAPAN-2, HUP-T3 and PA-TU-8902 were purchased from DSMZ (Braunschweig, Germany). PANC-1 was purchased from CLS Cell Line Services GmbH (Eppelheim, Germany). BxPC-3, HPAC and MIA-Pa-Ca-2 were purchased from ATCC (Rockville, Md., USA). Authenticity of cell lines was confirmed at the DSMZ by STR (short tandem repeat) analysis, a PCR based DNA-fingerprinting methodology. Cell lines were routinely passaged once or twice weekly and maintained in culture for up to 20 passages. All cells were grown at 37° C. in a humidified atmosphere with 5% CO2 in RPMI 1640 medium (25 mM HEPES, with L-glutamine, #FG1385, Biochrom, Berlin, Germany) supplemented with 10% (v/v) fetal calf serum (Sigma, Taufkirchen, Germany) and 0.1 mg/mL gentamicin (Life Technologies, Karlsruhe, Germany).
# (§2) The CellTiter-Blue® Cell Viability Assay (#G8081, Promega) was used according to manufacturer's instructions. Briefly, cells were harvested from exponential phase cultures, counted and plated in 96-well flat-bottom microtiter plates at a cell density of 6,000-20,000 cells/well depending on the cell line's growth rate. After a 24 hours recovery period to allow the cells to resume exponential growth, test compounds were added. […] After 96 hours treatment of cells, 20 μL/well CellTiter-Blue® reagent was added. Following an incubation period of up to four hours, fluorescence (FU) was measured by using the Enspire Multimode Plate Reader (excitation λ=531 nm, emission λ=615 nm). For calculations, the mean values of duplicate/quadruplicate (untreated control) data were used. Sigmoidal concentration-response curves were fitted to the data points (T/C values) obtained for each cell line using 4 parameter non-linear curve fit (Oncotest Warehouse Software).
# [2] = system: PAXF 1998L; test: as above; assay type: cell-based; conditions: Homo sapiens, PAXF 1998, 96 hours treatment
# Excerpt: as §1, §2
# [3] = system: PAXF 2005L; test: as above; assay type: cell-based; conditions: Homo sapiens, PAXF 2005, 96 hours treatment
# Excerpt: as §1, §2
# [4] = system: PAXF 2059L; test: as above; assay type: cell-based; conditions: Homo sapiens, PAXF 2059, 96 hours treatment
# Excerpt: as §1, §2
# [5] = system: PAXF 546L; test: as above; assay type: cell-based; conditions: Homo sapiens, PAXF 546, 96 hours treatment
# Excerpt: as §1, §2
# [6] = system: PAXF BxPC-3; test: as above; assay type: cell-based; conditions: Homo sapiens, PAXF BxPC-3, 96 hours treatment
# Excerpt: as §1, §2
# [7] = system: PAXF CAPAN-2; test: as above; assay type: cell-based; conditions: Homo sapiens, PAXF CAPAN-2, 96 hours treatment
# Excerpt: as §1, §2
# [8] = system: PAXF HPAC; test: as above; assay type: cell-based; conditions: Homo sapiens, 96 hours treatment
# Excerpt: as §1, §2
# [9] = system: PAXF HUP-T3; test: as above; assay type: cell-based; conditions: Homo sapiens, PAXF HUP-T3, 96 hours treatment
# Excerpt: as §1, §2
# [10] = system: PAXF PA-TU-8902; test: as above; assay type: cell-based; conditions: Homo sapiens, PaTu 8902, PAXF PA-TU-8902, 96 hours treatment
# Excerpt: as §1, §2
# [11] = system: PAXF PANC-1; test: as above; assay type: cell-based; conditions: Homo sapiens, PAXF PANC-1, 96 hours treatment
# Excerpt: as §1, §2
# [12] = system: PAXF MIA-Pa-Ca-2; test: cells; conditions: Homo sapiens, MIA PaCa-2, 96 h
# Excerpt: as §1, §2
# [13] = system: twelve selected human pancreatic cancer cell lines; test: cells; conditions: for IC50: Homo sapiens, Pancreatic cancer cell
# Excerpt: as §1, §2
# [14] = system: PAXF 1982; test: In vitro 3D clonogenic assay; assay type: cell-based; conditions: Homo sapiens
# Excerpt: (§3) Cell lines were routinely passaged one or twice weekly.
# [15] = system: PAXF 1986; test: In vitro 3D clonogenic assay; assay type: cell-based; conditions: Homo sapiens
# Excerpt: as §3
# [16] = system: PAXF 2005; test: In vitro 3D clonogenic assay; assay type: cell-based; conditions: Homo sapiens
# Excerpt: as §3
# [17] = system: PAXF 2059; test: In vitro 3D clonogenic assay; assay type: cell-based; conditions: Homo sapiens
# Excerpt: as §3
# [18] = system: PAXF 546; test: In vitro 3D clonogenic assay; assay type: cell-based; conditions: Homo sapiens
# Excerpt: as §3
# [19] = system: PAXF BxPC-3; test: In vitro 3D clonogenic assay; assay type: cell-based; conditions: Homo sapiens
# Excerpt: as §3
# [20] = system: PAXF CAPAN-2; test: In vitro 3D clonogenic assay; assay type: cell-based; conditions: Homo sapiens
# Excerpt: as §3
# [21] = system: PAXF HPAC; test: In vitro 3D clonogenic assay; assay type: cell-based; conditions: Homo sapiens
# Excerpt: as §3
# [22] = system: PAXF PA-TU-8902; test: In vitro 3D clonogenic assay; assay type: cell-based; conditions: Homo sapiens
# Excerpt: as §3
# [23] = system: PAXF PANC-1; test: In vitro 3D clonogenic assay; assay type: cell-based; conditions: Homo sapiens
# Excerpt: as §3
# [24] = system: PAXF MIA-Pa-Ca-2; test: cells; conditions: Homo sapiens
# Protocol: as §3
# Tumor xenografts (patient-derived, as well as cell line-derived xenografts) were passaged as subcutaneous xenografts in NMRI nu/nu mice. […] The percentage of viable cells was determined in a Neubauer-hemocytometer using trypan blue exclusion. Aliquots of the cells were frozen down, and stored in liquid nitrogen. On each day of an experiment, a frozen aliquot of tumor cells was thawed and used for preparation of assay plates.
# [25] = system: 11 human tumor xenograft-derived cell suspensions or tumor cell lines of pancreatic cancer; test: In vitro 3D clonogenic assay, whole panel (geometric mean); assay type: cell-based
# Excerpt: as §3
# [26] = system: human pancreatic cancer xenografts (PDX model PAXF 546); test: In vivo animal efficacy study; design: species or system Nude mice; conditions: for Mean Tumor volume: methazolamide 60 mg/kg p.o., gemcitabine 50 mg/kg i.v. Q7D, in mm³; for tumor growth inhibition: methazolamide 60 mg/kg orally, gemcitabine 50 mg/kg i.v.
# [27] = system: PAXF 1986L, PAXF 546L, PAXF Capan-2, and PAXF MIA-Pa-Ca-2; test: cells; conditions: Homo sapiens, 192 h, read-out: relative IC50 values, range over four cell lines
# Protocol: The clonogenic assay was carried out in a 96 well plate format using ultra low attachment plates. For each test cells were prepared as described above, and assay plates were prepared as follows: each test well contained a layer of semi-solid medium with tumor cells (50 μl), and a second layer of medium supernatant with or without test compounds (100 μl). […] The soft-agar layer was immediately covered with 90 μl of the same culture medium without agar. After 24 hour the test compounds were added after serial dilution in IMDM and transfer in cell culture medium, and left on the cells for the duration of the experiment (continuous exposure, 100 μL total drug overlay). Every plate included six untreated control wells and drug-treated groups in a layout as shown above. […] Within this period, ex vivo tumor growth led to the formation of colonies with a diameter of >50 μm. At the time of maximum colony formation, counts were performed with an automatic image analysis system (CellInsight NXT, Thermo Scientific). 48 hours prior to evaluation, vital colonies were stained with a sterile aqueous solution of 2-(4-iodophenyl)-3-(4-nitrophenyl)-5-phenyltetrazolium chloride (1 mg/ml, 100 μl/well).
compound,measurement,setting,value
"CC(=O)N=c1sc(S(N)(=O)=O)nn1C [Methazolamide, N-[5-(aminosulfonyl)-3-methyl-1,3,4-thiadiazol-2(3H)-ylidene]acetamide]",IC50,[1]; read-out: Absolute IC50,1850 µM
same,IC50,[1]; read-out: Relative IC50,1670 µM
same,IC50,[2]; read-out: Absolute IC50,2510 µM
same,IC50,[2]; read-out: Relative IC50,2230 µM
same,IC50,[3]; read-out: Absolute IC50,1840 µM
same,IC50,[3]; read-out: Relative IC50,1580 µM
same,IC50,[4]; read-out: Absolute IC50,2040 µM
same,IC50,[4]; read-out: Relative IC50,1790 µM
same,IC50,[5]; read-out: Absolute IC50,2320 µM
same,IC50,[5]; read-out: Relative IC50,3050 µM
same,IC50,[6]; read-out: Absolute IC50,1960 µM
same,IC50,[6]; read-out: Relative IC50,2340 µM
same,IC50,[7]; read-out: Absolute IC50,2030 µM
same,IC50,[7]; read-out: Relative IC50,2040 µM
same,IC50,[8]; read-out: Absolute IC50,5350 µM
same,IC50,[8]; read-out: Relative IC50,5510 µM
same,IC50,[9]; read-out: Absolute IC50,726 µM
same,IC50,[9]; read-out: Relative IC50,711 µM
same,IC50,[10]; read-out: Absolute IC50,1030 µM
same,IC50,[10]; read-out: Relative IC50,1130 µM
same,IC50,[11]; read-out: Absolute IC50,1540 µM
same,IC50,[11]; read-out: Relative IC50,1590 µM
same,IC50,[12]; read-out: Absolute IC50,1520 µM
same,IC50,[12]; read-out: Relative IC50,1760 µM
same,"activity, shape of concentration-effect curves","[13]; 2-D, all cell lines tested",concentration-dependent activity with sigmoidal concentration-effect curves
same,IC50,"[13]; read-out: Absolute IC50, Geometric Mean",1840 µM
same,IC50,"[13]; read-out: Individual IC50 values, range over cell lines",726 to 5350 µM
same,IC50,"[13]; read-out: Relative IC50, Geometric Mean",1880 µM
same,IC50,[14]; read-out: Absolute IC50,703 µM
same,IC50,[14]; read-out: Relative IC50,725 µM
same,IC50,[15]; read-out: Absolute IC50,464 µM
same,IC50,[15]; read-out: Relative IC50,486 µM
same,IC50,[16]; read-out: Absolute IC50,523 µM
same,IC50,[16]; read-out: Relative IC50,603 µM
same,IC50,[17]; read-out: Absolute IC50,820 µM
same,IC50,[17]; read-out: Relative IC50,754 µM
same,IC50,"[18]; PAXF546, read-out: Absolute IC50",346 µM
same,IC50,"[18]; PAXF546, read-out: Relative IC50",336 µM
same,IC50,[19]; read-out: Absolute IC50,837 µM
same,IC50,[19]; read-out: Relative IC50,808 µM
same,IC50,[20]; read-out: Absolute IC50,568 µM
same,IC50,[20]; read-out: Relative IC50,620 µM
same,IC50,[21]; read-out: Absolute IC50,1360 µM
same,IC50,[21]; read-out: Relative IC50,1090 µM
same,IC50,"[22]; PaTu 8902, read-out: Absolute IC50",2110 µM
same,IC50,"[22]; PaTu 8902, read-out: Relative IC50",2580 µM
same,IC50,[23]; read-out: Absolute IC50,1760 µM
same,IC50,[23]; read-out: Relative IC50,1820 µM
same,IC50,"[24]; MIA PaCa-2, read-out: Absolute IC50",533 µM
same,IC50,"[24]; MIA PaCa-2, read-out: Relative IC50",489 µM
same,IC50,"[25]; read-out: Absolute IC50, Geometric mean",777 µM
same,IC50,"[25]; read-out: Relative IC50, Geometric mean",783 µM
same,Mean Tumor volume,[26]; day 1,94.47
same,Mean Tumor volume,[26]; day 3,121.60
same,Mean Tumor volume,[26]; day 9,151.64
same,Mean Tumor volume,[26]; day 12,189.82
same,Mean Tumor volume,[26]; day 15,253.64
same,Mean Tumor volume,[26]; day 18,341.73
same,Mean Tumor volume,[26]; day 21,470.79
same,Mean Tumor volume,[26]; day 24,583.90
same,Mean Tumor volume,[26]; day 28,718.08
same,Mean Tumor volume,[26]; day 31,836.82
same,Mean Tumor volume,[26]; day 34,916.02
same,tumor growth inhibition,[26],up to 50%
same,IC50,[27],297 to 806 µM
"Nc1ccn([C@@H]2O[C@H](CO)[C@@H](O)C2(F)F)c(=O)n1 [Gemcitabine, gemcitabine]",Mean Tumor volume,[26]; day 1,119.84
same,Mean Tumor volume,[26]; day 3,172.26
same,Mean Tumor volume,[26]; day 9,214.28
same,Mean Tumor volume,[26]; day 12,262.19
same,Mean Tumor volume,[26]; day 15,312.84
same,Mean Tumor volume,[26]; day 18,334.59
same,Mean Tumor volume,[26]; day 21,382.57
same,Mean Tumor volume,[26]; day 24,454.56
same,Mean Tumor volume,[26]; day 28,592.69
same,Mean Tumor volume,[26]; day 31,648.88
same,Mean Tumor volume,[26]; day 34,696.91
same,tumor growth inhibition,[26],61%
same,IC50,[27],0.013 to 0.062 µM
